Data reported in ChEMBL document CHEMBL1201862, “PubChem BioAssay data set” (2004).
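Where inhibition never reached the appropriate level, the endpoint shown equals the highest concentration tested. Otherwise, values were interpolated linearly from a five-concentration, 48-hour dose response in 96-well plates. GI50 = concentration required for 50% inhibition of growth.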 Active and inactive are the calls of the source. Cut-off read from the data, not from the text of the source: active = GI50 up to about 1.1 µM and inactive = higher.

What was measured:
Experiment in all cases: inhibition of tumour cell growth, NCI panel, 48 h
786-0 = system: 786-0
A498 = system: A498
A549 = system: A549
ACHN = system: ACHN
BT-549 = system: BT-549
CAKI-1 = system: CAKI-1
CCRF-CEM = system: CCRF-CEM
COLO 205 = system: COLO 205
DLD-1 = system: DLD-1
DMS-114 = system: DMS-114
DMS-273 = system: DMS-273
DU-145 = system: DU-145
EKVX = system: EKVX
HCC 2998 = system: HCC 2998
HCT-116 = system: HCT-116
HCT-15 = system: HCT-15
HL-60 = system: HL-60
HOP-18 = system: HOP-18
HOP-62 = system: HOP-62
HOP-92 = system: HOP-92
HT-29 = system: HT-29
Hs-578T = system: Hs-578T
IGROV-1 = system: IGROV-1
K562 = system: K562
KM-20L2 = system: KM-20L2
KM12 = system: KM12
LOX IMVI = system: LOX IMVI
LXFL 529 = system: LXFL 529
M14 = system: M14
M19-MEL = system: M19-MEL
MCF7 = system: MCF7
MDA-MB-231 = system: MDA-MB-231
MDA-MB-435 = system: MDA-MB-435
MDA-N = system: MDA-N
MOLT-4 = system: MOLT-4
Malme-3M = system: Malme-3M
NCI-H226 = system: NCI-H226
NCI-H23 = system: NCI-H23
NCI-H460 = system: NCI-H460
NCI-H522 = system: NCI-H522
NCI/ADR-RES = system: NCI/ADR-RES
OVCAR-3 = system: OVCAR-3
OVCAR-4 = system: OVCAR-4
OVCAR-5 = system: OVCAR-5
OVCAR-8 = system: OVCAR-8
PC-3 = system: PC-3
RPMI-8226 = system: RPMI-8226
RXF 393 = system: RXF 393
RXF 631 = system: RXF 631
SF-268 = system: SF-268
SF-295 = system: SF-295
SF-539 = system: SF-539
SK-MEL-28 = system: SK-MEL-28
SK-MEL-2 = system: SK-MEL-2
SK-MEL-5 = system: SK-MEL-5
SK-OV-3 = system: SK-OV-3
SN12C = system: SN12C
SNB-19 = system: SNB-19
SNB-75 = system: SNB-75
SNB-78 = system: SNB-78
SR = system: SR
SW-620 = system: SW-620
T47D = system: T47D
TK-10 = system: TK-10
U-251 = system: U-251
UACC-257 = system: UACC-257
UACC-62 = system: UACC-62
UO-31 = system: UO-31
XF498 = system: XF498

Measured: GI50

C=C1C(=O)OC2/C=C(CO)/C=C\C3OC3(C)CC(OC(=O)/C(C)=C/COC(C)=O)C12 (stereo not drawn)
1.87 µM: HCT-15
inactive: 786-0 1.97 µM | A498 7.43 µM | A549 11.9 µM | ACHN 3.14 µM | BT-549 1.57 µM | CAKI-1 2.76 µM | CCRF-CEM 1.26 µM | COLO 205 1.6 µM | DMS-114 4.35 µM | DMS-273 1.97 µM | DU-145 16.6 µM | EKVX 3.78 µM | HCC 2998 13.4 µM | HCT-116 1.5 µM | HOP-18 9.38 µM | HOP-62 20 µM | HOP-92 2.62 µM | HT-29 2.52 µM | Hs-578T 3.08 µM | IGROV-1 7.8 µM | K562 3.3 µM | KM-20L2 4.7 µM | KM12 5.28 µM | LOX IMVI 1.34 µM | LXFL 529 1.58 µM | M14 2.3 µM | M19-MEL 1.84 µM | MCF7 3.15 µM | MDA-MB-231 2.66 µM | MDA-MB-435 2 µM | MDA-N 1.75 µM | Malme-3M 1.77 µM | NCI-H226 12.2 µM | NCI-H23 3.08 µM | NCI-H460 5.69 µM | NCI/ADR-RES 3.97 µM | OVCAR-3 2.46 µM | OVCAR-4 3.99 µM | OVCAR-5 13.9 µM | OVCAR-8 2.47 µM | PC-3 10 µM | RXF 393 1.85 µM | RXF 631 2.74 µM | SF-268 4.04 µM | SF-295 14.8 µM | SF-539 1.96 µM | SK-MEL-28 1.73 µM | SK-MEL-2 3.75 µM | SK-MEL-5 5 µM | SK-OV-3 17.8 µM | SN12C 2.21 µM | SNB-19 12.5 µM | SNB-75 7.8 µM | SNB-78 4.08 µM | SW-620 1.37 µM | T47D 2.65 µM | TK-10 5.16 µM | U-251 3.95 µM | UACC-257 2.37 µM | UACC-62 2.2 µM | UO-31 6.11 µM | XF498 2.47 µM
active: DLD-1 0.773 µM | HL-60 0.34 µM | MOLT-4 0.802 µM | NCI-H522 0.692 µM | RPMI-8226 0.716 µM | SR 0.56 µM

C[N+](C)(C)CC(=O)N/N=c1\cc(C(=O)Nc2ccc(N=O)cc2C#N)oc2cc(O)ccc12
> 100 µM: HCT-15
inactive: 786-0 > 100 µM | A498 > 100 µM | A549 > 100 µM | ACHN > 100 µM | CAKI-1 > 100 µM | CCRF-CEM > 100 µM | COLO 205 > 100 µM | DLD-1 > 100 µM | DMS-114 > 100 µM | DMS-273 > 100 µM | EKVX > 100 µM | HCC 2998 > 100 µM | HCT-116 > 100 µM | HL-60 > 100 µM | HOP-18 > 100 µM | HOP-62 > 100 µM | HOP-92 > 100 µM | HT-29 > 100 µM | IGROV-1 > 100 µM | K562 > 100 µM | KM-20L2 > 100 µM | KM12 > 100 µM | LOX IMVI > 100 µM | LXFL 529 > 100 µM | M14 > 100 µM | M19-MEL > 100 µM | MOLT-4 > 100 µM | Malme-3M > 100 µM | NCI-H226 > 100 µM | NCI-H23 > 100 µM | NCI-H460 > 100 µM | NCI-H522 > 100 µM | OVCAR-3 > 100 µM | OVCAR-4 > 100 µM | OVCAR-5 > 100 µM | OVCAR-8 > 100 µM | RXF 393 > 100 µM | RXF 631 > 100 µM | SF-268 > 100 µM | SF-295 > 100 µM | SF-539 > 100 µM | SK-MEL-28 > 100 µM | SK-MEL-2 > 100 µM | SK-MEL-5 > 100 µM | SK-OV-3 > 100 µM | SN12C > 100 µM | SNB-19 > 100 µM | SNB-75 > 100 µM | SNB-78 > 100 µM | SR > 100 µM | SW-620 > 100 µM | TK-10 > 100 µM | U-251 > 100 µM | UACC-257 > 100 µM | UACC-62 > 100 µM | UO-31 72.3 µM | XF498 > 100 µM

COc1ccc(C(c2c(O)c3ccccc3n(C)c2=O)c2c(O)c3ccccc3n(C)c2=O)cc1
inactive: 786-0 28.1 µM | A549 37.5 µM | ACHN 46.5 µM | CAKI-1 38.2 µM | COLO 205 57.3 µM | DLD-1 37.5 µM | DMS-114 63.1 µM | DMS-273 31.2 µM | EKVX 34.8 µM | HCC 2998 40.2 µM | HCT-116 36 µM | HL-60 31.6 µM | HOP-18 35.7 µM | HOP-92 22.6 µM | HT-29 24.3 µM | IGROV-1 71.8 µM | K562 27.9 µM | KM-20L2 21.3 µM | KM12 22.4 µM | LOX IMVI 37.2 µM | LXFL 529 46.1 µM | M14 34.9 µM | M19-MEL 98.4 µM | MOLT-4 35.9 µM | Malme-3M 47.2 µM | NCI-H226 24.5 µM | NCI-H23 24.5 µM | NCI-H460 > 100 µM | NCI-H522 9.77 µM | OVCAR-3 33 µM | OVCAR-4 62.8 µM | OVCAR-5 32.3 µM | OVCAR-8 81.1 µM | RPMI-8226 46 µM | RXF 393 73.3 µM | RXF 631 21.3 µM | SF-268 34.1 µM | SF-295 36.5 µM | SF-539 24.5 µM | SK-MEL-28 39.2 µM | SK-MEL-2 > 100 µM | SK-MEL-5 20.2 µM | SK-OV-3 58.3 µM | SN12C 66.5 µM | SNB-19 39.5 µM | SNB-75 16.1 µM | SNB-78 7.16 µM | SR 51.4 µM | SW-620 57.4 µM | TK-10 38.2 µM | U-251 19.1 µM | UACC-257 19.5 µM | UACC-62 13.2 µM | UO-31 36.5 µM | XF498 99.8 µM
> 10 µM: HCT-15

Oc1ccccc1/C=N/Cc1ccco1
inactive: 786-0 > 100 µM | A498 > 100 µM | A549 > 100 µM | ACHN > 100 µM | CCRF-CEM > 100 µM | DLD-1 > 100 µM | DMS-114 > 100 µM | EKVX > 100 µM | HCT-116 > 100 µM | HL-60 > 100 µM | HOP-18 > 100 µM | HOP-62 > 100 µM | HT-29 > 100 µM | IGROV-1 > 100 µM | K562 > 100 µM | KM-20L2 > 100 µM | KM12 > 100 µM | LOX IMVI > 100 µM | LXFL 529 > 100 µM | M14 > 100 µM | M19-MEL > 100 µM | MOLT-4 > 100 µM | Malme-3M > 100 µM | NCI-H226 > 100 µM | NCI-H23 > 100 µM | NCI-H460 > 100 µM | OVCAR-3 > 100 µM | OVCAR-4 > 100 µM | OVCAR-5 > 100 µM | OVCAR-8 > 100 µM | RPMI-8226 > 100 µM | RXF 393 > 100 µM | RXF 631 > 100 µM | SF-268 > 100 µM | SF-295 > 100 µM | SF-539 > 100 µM | SK-MEL-28 > 100 µM | SK-OV-3 > 100 µM | SN12C > 100 µM | SNB-19 > 100 µM | SNB-75 > 100 µM | SNB-78 > 100 µM | SR > 100 µM | SW-620 > 100 µM | TK-10 > 100 µM | U-251 > 100 µM | UACC-257 > 100 µM | UACC-62 > 100 µM | UO-31 > 100 µM | XF498 > 100 µM
